Source: US12358907B2, “Substituted pyrrolidine amides III” (GRÜNENTHAL GMBH, priority 2019, dated 2025)

biological target: human glucocorticoid receptor (Homo sapiens (Human), UniProt P04150); experiment: Human glucocorticoid receptor (hGR) ligand-binding assay (3H-dexamethasone competition, IM9 cytosol); conditions: read-out: % inhibition hGR at 1 μM
Method: Preferably, the glucocortitcoid receptor extracted from cytosol of IM9 cells is used for competitive radioligand binding assays to calculate percentage inhibition of the binding of radiolabeled ligand 3H-dexamethasone at the human glucocorticoid receptor.
The human lymphoblast cell line IM9 (ATCC, Bethesda, MD) was cultivated in RPMI 1640 media containing 10% fetal bovine serum, penicillin (100 U/ml), streptomycin (100 μg/ml), and 2 mM L-glutamine at 37° and 7% CO2 in a humidified incubator. Cells were centrifuged for 10 minutes at 1500 g and were washed in PBS and repelleted. Cell were then resuspended in homogenization buffer consisting of: 10 mM TES, 10 mM sodium molybdate, 1 mM EDTA, pH 7.4, 20 mM 2-mercaptoethanol, and 10% glycerol. Disruption of the cells was performed by nitrogen cavitation using 2×15 minutes at 600 to 750 psi nitrogen in a N2 cavitator at 0° C. The cell preparation was then centrifuged at 27,000 g for 15 minutes, and the resultant supernatant (=cytosol of IM9 cells) was centrifuged at 103,000 g for 60 minutes at 4° C. The amount of protein in the supernatant fraction was determined using a BCA assay kit and aliquots were snap frozen in a dry ice-acetone bath and stored at −70° C. Competitive binding assays were done in duplicate in homogenization buffer with a total volume of 200 μl. To this end, 1 mg of IM9 cytosol, 0.05 μCi (1.5 nM) of 3H-dexamethasone and unlabeled Example compounds as competitor compounds at 1 μM were mixed. The reaction was stopped after incubation at 0° C. for 16 to 18 hours by the addition of 100 μl of a charcoal-dextran mixture (2% activated charcoal, 0.5% dextran in 10 mM Tris, 1 mM EDTA, pH 7.4). Another incubation step at 0° C. for 10 minutes followed before the samples were centrifuged for 5 minutes at 8200 g. 100 μl of the supernatant) was finally assayed for radioactivity by liquid scintillationspectrometry, and percentage inhibition of 3H-dexamethasone binding was calculated.

human glucocorticoid receptor, sequence (P04150 whole entry): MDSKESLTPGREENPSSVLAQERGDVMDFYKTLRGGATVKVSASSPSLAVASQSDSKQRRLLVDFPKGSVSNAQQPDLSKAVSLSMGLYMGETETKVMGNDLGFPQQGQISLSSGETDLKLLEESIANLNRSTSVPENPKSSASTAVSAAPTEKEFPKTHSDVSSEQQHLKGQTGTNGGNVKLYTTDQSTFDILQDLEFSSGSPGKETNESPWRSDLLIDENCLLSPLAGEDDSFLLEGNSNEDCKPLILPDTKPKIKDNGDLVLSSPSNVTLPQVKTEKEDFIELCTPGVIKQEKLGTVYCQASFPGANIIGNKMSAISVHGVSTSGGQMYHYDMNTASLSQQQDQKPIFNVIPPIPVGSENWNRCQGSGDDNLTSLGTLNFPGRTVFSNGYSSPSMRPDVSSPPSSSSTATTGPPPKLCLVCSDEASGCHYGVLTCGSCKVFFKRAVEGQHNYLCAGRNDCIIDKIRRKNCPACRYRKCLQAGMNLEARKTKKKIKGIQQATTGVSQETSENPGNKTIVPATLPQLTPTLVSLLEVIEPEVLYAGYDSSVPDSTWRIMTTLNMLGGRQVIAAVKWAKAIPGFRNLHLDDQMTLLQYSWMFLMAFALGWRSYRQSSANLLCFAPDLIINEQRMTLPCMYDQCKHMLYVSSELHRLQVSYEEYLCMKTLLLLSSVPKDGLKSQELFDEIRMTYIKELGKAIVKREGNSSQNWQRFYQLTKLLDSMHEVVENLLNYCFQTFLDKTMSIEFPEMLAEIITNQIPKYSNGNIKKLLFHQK

inhibition at 1 µM | Compound
84% | Cc1nc(C(=O)N[C@@H]2[C@@H](c3ccccc3)N(c3ccc4c(cnn4-c4ccc(=O)n(C)c4)c3)C(=O)C2(C)C)no1 [Example 14, N-[(2R,3S)-4,4-Dimethyl-1-[1-(1-methyl-6-oxo-1H-pyridin-3-yl)-1H-indazol-5-yl]-5-oxo-2-phenyl-pyrrolidin-3-yl]-5-methyl-[1,2,4]oxadiazole-3-carboxylic acid amide]
87% | Cn1cc(-n2ncc3cc(N4C(=O)C(C)(C)[C@H](NC(=O)c5cncs5)[C@H]4c4ccccc4)ccc32)ccc1=O [Example 15, N-[(2R,3S)-4,4-Dimethyl-1-[1-(1-methyl-6-oxo-1H-pyridin-3-yl)-1H-indazol-5-yl]-5-oxo-2-phenyl-pyrrolidin-3-yl]-thiazole-5-carboxylic acid amide]
29% | Cc1scnc1C(=O)N[C@@H]1[C@@H](c2ccccc2)N(c2ccc3c(cnn3-c3ccc(=O)n(C)c3)c2)C(=O)C1(C)C [Example 18, N-[(2R,3S)-4,4-Dimethyl-1-[1-(1-methyl-6-oxo-1H-pyridin-3-yl)-1H-indazol-5-yl]-5-oxo-2-phenyl-pyrrolidin-3-yl]-5-methyl-thiazole-4-carboxylic acid amide]
86% | Cn1cc(-n2ncc3cc(N4C(=O)C(C)(C)[C@H](NC(=O)C(C)(F)F)[C@H]4c4ccccc4)ccc32)ccc1=O [Example 9, N-[(2R,3S)-4,4-Dimethyl-1-[1-(1-methyl-6-oxo-1H-pyridin-3-yl)-1H-indazol-5-yl]-5-oxo-2-phenyl-pyrrolidin-3-yl]-2,2-difluoro-propionamide]
30% | Cc1ncsc1C(=O)N[C@@H]1[C@@H](c2ccccc2)N(c2ccc3c(cnn3-c3ccc(=O)n(C)c3)c2)C(=O)C1(C)C [Example 16, N-[(2R,3S)-4,4-Dimethyl-1-[1-(1-methyl-6-oxo-1H-pyridin-3-yl)-1H-indazol-5-yl]-5-oxo-2-phenyl-pyrrolidin-3-yl]-4-methyl-thiazole-5-carboxylic acid amide]
80% | Cn1cc(-n2ncc3cc(N4C(=O)C(C)(C)[C@H](NC(=O)c5cscn5)[C@H]4c4ccccc4)ccc32)ccc1=O [Example 17, N-[(2R,3S)-4,4-Dimethyl-1-[1-(1-methyl-6-oxo-1H-pyridin-3-yl)-1H-indazol-5-yl]-5-oxo-2-phenyl-pyrrolidin-3-yl]-thiazole-4-carboxylic acid amide]
22% | Cn1cc(-n2ncc3cc(N4C(=O)C(C)(C)[C@@H](NC(=O)c5cnco5)[C@@H]4c4ccccc4)ccc32)ccc1=O [Example 21, N-[(2S,3R)-4,4-Dimethyl-1-[1-(1-methyl-6-oxo-1H-pyridin-3-yl)-1H-indazol-5-yl]-5-oxo-2-phenyl-pyrrolidin-3-yl]-oxazole-5-carboxylic acid amide]

biological target: glucocorticoid receptor (GAL4 DBD-GR) (Homo sapiens (Human), UniProt P04150); experiment: GR cell-based assays (GRE agonist / GRE antagonist), CHO-Gal4/GR luciferase reporter; conditions: CHO-Gal4/GR reporter cells, agonist mode (EC50) or antagonist mode against beclometasone (IC50), 6 hour incubation
Sequence (P04150 524-758): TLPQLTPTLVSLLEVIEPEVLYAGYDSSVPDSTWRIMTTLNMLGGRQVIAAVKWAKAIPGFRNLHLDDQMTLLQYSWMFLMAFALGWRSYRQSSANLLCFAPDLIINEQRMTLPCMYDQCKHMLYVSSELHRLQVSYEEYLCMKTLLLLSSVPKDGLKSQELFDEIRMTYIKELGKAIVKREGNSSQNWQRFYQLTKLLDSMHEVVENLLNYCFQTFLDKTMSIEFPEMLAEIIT
Procedure, shortened: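 CHO cells stably carrying GAL4 DBD-GR ligand-binding-domain fusion and a GAL4-UAS firefly luciferase reporter were treated in Opti-MEM with 8 half-log concentrations from 10 μM to 0.003 μM (0.5% DMSO, quadruplicates). Antagonist mode measured repression of beclomethasone-induced signal. Luminescence after lysis gave EC50 or IC50.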

IC50 | Compound
< 100 nM | CC1(C)C(=O)N(c2ccc3c(cnn3-c3ccc(F)cc3)c2)[C@H](c2ccccc2)[C@H]1NC(=O)c1cccnc1 [Example 42a, N-((2R,3S)-1-(1-(4-fluorophenyl)-1H-indazol-5-yl)-4,4-dimethyl-5-oxo-2-phenylpyrrolidin-3-yl)nicotinamide]

same assay, conditions: read-out: IC50 or EC50

Compound | IC50
C[C@@H]1C(=O)N(c2ccc3c(cnn3-c3ccc(F)cc3)c2)[C@H](c2ccccc2)[C@H]1NS(C)(=O)=O (racemic) [Example 61, N-[rac-(2R,3S,4S)-1-[1-(4-Fluorophenyl)-1H-indazol-5-yl]-4-methyl-5-oxo-2-phenyl-pyrrolidin-3-yl]-methanesulfonic acid amide] | 100 to 1000 nM
Cc1nocc1C(=O)N[C@H]1[C@H](c2ccccc2)N(c2ccc3c(cnn3-c3ccc(F)cc3)c2)C(=O)C1(C)C [Example 40b, N-((2S,3R)-1-(1-(4-fluorophenyl)-1H-indazol-5-yl)-4,4-dimethyl-5-oxo-2-phenylpyrrolidin-3-yl)-3-methylisoxazole-4-carboxamide] | 100 to 1000 nM
Cc1cccc([C@@H]2[C@@H](NC(=O)c3scnc3C)[C@@H](C)C(=O)N2c2ccc3c(cnn3-c3ccc(F)cc3)c2)c1 (racemic) [Example 71, N-[rac-(2R,3S,4R)-1-[1-(4-Fluorophenyl)-1H-indazol-5-yl]-4-methyl-2-m-tolyl-5-oxo-pyrrolidin-3-yl]-4-methyl-thiazole-5-carboxylic acid amide] | 100 to 1000 nM
Cn1cc(C(=O)N[C@H]2[C@H](c3ccccc3)N(c3ccc4c(cnn4-c4ccc(F)cc4)c3)C(=O)C2(C)C)cn1 [Example 41b, N-((2S,3R)-1-(1-(4-fluorophenyl)-1H-indazol-5-yl)-4,4-dimethyl-5-oxo-2-phenylpyrrolidin-3-yl)-1-methyl-1H-pyrazole-4-carboxamide] | 1000 to 15000 nM

Next, values leading:

IC50 | Compound
100 to 1000 nM | Cc1ncsc1C(=O)N[C@H]1[C@H](C)C(=O)N(c2ccc3c(cnn3-c3ccc(F)cc3)c2)[C@@H]1c1ccc(Cl)s1 (racemic) [Example 113, N-[rac-(2S,3S,4S)-2-(5-Chloro-thiophen-2-yl)-1-[1-(4-fluorophenyl)-1H-indazol-5-yl]-4-methyl-5-oxo-pyrrolidin-3-yl]-4-methyl-thiazole-5-carboxylic acid amide]
< 100 nM | C[C@H]1C(=O)N(c2ccc3c(cnn3-c3ccc(F)cc3)c2)[C@H](c2ccccc2Cl)[C@H]1NC(=O)c1cccnc1 (racemic) [Example 87, N-[rac-(2R,3S,4R)-2-(2-Chlorophenyl)-1-[1-(4-fluorophenyl)-1H-indazol-5-yl]-4-methyl-5-oxo-pyrrolidin-3-yl]-pyridine-3-carboxylic acid amide]
< 100 nM | C[C@H]1C(=O)N(c2ccc3c(cnn3-c3ccc(F)cc3)c2)[C@H](c2ccccc2Cl)[C@H]1NS(C)(=O)=O (racemic) [Example 86, N-[rac-(2R,3S,4R)-2-(2-Chlorophenyl)-1-[1-(4-fluorophenyl)-1H-indazol-5-yl]-4-methyl-5-oxo-pyrrolidin-3-yl]-methanesulfonic acid amide]
< 100 nM | Cc1cccc([C@@H]2[C@@H](NC(=O)c3ccn(C)n3)[C@@H](C)C(=O)N2c2ccc3c(cnn3-c3ccc(F)cc3)c2)c1 (racemic) [Example 72, N-[rac-(2R,3S,4R)-1-[1-(4-Fluorophenyl)-1H-indazol-5-yl]-4-methyl-2-m-tolyl-5-oxo-pyrrolidin-3-yl]-1-methyl-1H-pyrazole-3-carboxylic acid amide]
< 100 nM | C[C@@H]1C(=O)N(c2ccc3c(cnn3-c3ccc(F)cc3)c2)[C@H](c2ccc(Cl)s2)[C@H]1NC(=O)C(C)(F)F (racemic) [Example 123, N-[rac-(2S,3S,4S)-2-(5-Chloro-thiophen-2-yl)-1-[1-(4-fluorophenyl)-1H-indazol-5-yl]-4-methyl-5-oxo-pyrrolidin-3-yl]-2,2-difluoro-propionamide]
100 to 1000 nM | CC[C@@]1(C)C(=O)N(c2ccc3c(cnn3-c3ccc(F)cc3)c2)[C@H](c2ccccc2)[C@H]1NC(=O)C1CC1 (racemic) [Example 134, N-(rac-(2R,3S,4R)-4-ethyl-1-(1-(4-fluorophenyl)-1H-indazol-5-yl)-4-methyl-5-oxo-2-phenylpyrrolidin-3-yl)cyclopropanecarboxamide]
< 100 nM | C[C@@H]1C(=O)N(c2ccc3c(cnn3-c3ccc(F)cc3)c2)[C@H](c2ccc(Cl)s2)[C@H]1NC(=O)c1ccn(C)n1 (racemic) [Example 110, N-[rac-(2S,3S,4S)-2-(5-Chloro-thiophen-2-yl)-1-[1-(4-fluorophenyl)-1H-indazol-5-yl]-4-methyl-5-oxo-pyrrolidin-3-yl]-1-methyl-1H-pyrazole-3-carboxylic acid amide]
< 100 nM | Cc1cccc([C@@H]2[C@@H](NC(=O)c3cccnc3)[C@@H](C)C(=O)N2c2ccc3c(cnn3-c3ccc(F)cc3)c2)c1 (racemic) [Example 73, N-[rac-(2R,3S,4R)-1-[1-(4-Fluorophenyl)-1H-indazol-5-yl]-4-methyl-2-m-tolyl-5-oxo-pyrrolidin-3-yl]-pyridine-3-carboxylic acid amide]
1000 to 15000 nM | CC[C@@H]1[C@@H](NC(=O)C(C)(F)F)[C@H](Cc2ccccc2)C(=O)N1c1ccc2c(cnn2-c2ccc(F)cc2)c1 (racemic) [Example 107, N-[rac-(2R,3S,4S)-4-Benzyl-2-ethyl-1-[1-(4-fluorophenyl)-1H-indazol-5-yl]-5-oxo-pyrrolidin-3-yl]-2,2-difluoro-propionamide]
< 100 nM | C[C@@H]1C(=O)N(c2ccc3c(cnn3-c3ccc(F)cc3)c2)[C@H](c2ccccc2Cl)[C@H]1NS(C)(=O)=O (racemic) [Example 93, N-[rac-(2R,3S,4S)-2-(2-Chlorophenyl)-1-[1-(4-fluorophenyl)-1H-indazol-5-yl]-4-methyl-5-oxo-pyrrolidin-3-yl]-methanesulfonic acid amide]
